The subject of assay [1] is phenylquinone-induced writhing. As to the kind of experiment: phenylquinone-induced writhing assay, analgesia after i.m. injection. Format: in vivo, Mice. Here is the method: Duration of analgesia was evaluated using the phenylquinone-induced writhing assay essentially as described by Pircio et al. R.W. Pircio, J.A. Gylys, R.L. Cavanagh, J.P. Buyniski and M.E. Bierwagen, 220 Archives Internationales de Pharmacodynamie et de Therapie, 231-57 (1976). Mice were given intraperitoneal injections of 0.025% (w/v) phenyl-p-quinone in 5% ethanol (2.5 mg/kg). […] The writhing phenomenon has been described by Siegmund et al. E. Siegmund, R. Cadmus, G. Lu, 95 Proceedings of the Society for Experimental Biology and Medicine, 729-31 (1957). Five animals per observer was established as a manageable procedure yielding values which were reproducible and consistent from observer to observer. […]
The dose required for single injection ED₅₀ and ED₁₀₀ of free butorphanol tartrate was determined by administering various doses of free drug intramuscularly 15 minutes prior to the i.p. injections of phenylquinone. […] The ED₅₀ and ED₁₀₀ values determined in this study were compared for agreement with reported literature values and used along with control values as a reference standard for each study. […]
Extended analgesia studies were conducted using no fewer than 50 animals per treatment group. […] The times at which analgesic effect was measured were based on the particular treatment and on the results of the previous bioassays for the treatment group.

The test system of assay [2] is phenylquinone-induced writhing. As to the kind of experiment: tolerance (tachyphylaxis) studies: shift of ED50 of free butorphanol tartrate in the writhing assay after pretreatment. Format: in vivo, mice. On the technique in general: In writhing tests, fewer writhes than in controls are read as antinociception.

Where a name gives a salt, the structure may show the parent alone.

Regarding `Oc1ccc2c(c1)C13CCCCC1(O)C(C2)N(CC1CCC1)CC3` (stereo not drawn) [free butorphanol tartrate, butorphanol tartrate], the “effect of higher doses on duration of analgesia” value in assay [1] (2 ug, 50 ug and 500 ug dose curves, Fig. 1) was “do not provide extended efficacy”. In addition, the ED50 in assay [1] (Mus musculus, im, 0.25 h, untreated mice, single i.m. injection of free drug 15 minutes prior to i.p. phenylquinone, read-out: ED₅₀) is 0.05 mg/kg; in assay [2] (Mus musculus, im, after four i.m. injections of 50 ul saline at 3 hr. intervals, determined 13 hrs. after start, read-out: ED₅₀ for free butorphanol tartrate after multiple injections of saline), approximately 0.125 mg/kg. The “36 hr. ED₅₀” value in assay [2] (5 injections of 100 ug/kg at 3 hr. intervals, second protocol, Fig. 6) is recorded as “suggestive of recovery from tachyphylaxis”. The “increase in ED₅₀ values between no treatment animals and multiple injection animals” value in assay [2] (after 4 injections of the ED₁₀₀ dose at 3 hr. intervals, first protocol, Fig. 2) is listed as 4-5 fold. Also, the “shift of ED₅₀ relative to its initial value” in assay [2] (pretreatment with 4 injections of 100 ug/kg, Fig. 4 bottom panel) was “approximately 4 times its initial value”.

These data come from EP0300806A1, “Opioid analgesic liposomal delivery-release system” (VESTAR, INC., priority 1987, dated 1989).
